# “Also recorded” adds a separate entry of the source. Structures can show the parent of a compound that is named as a salt.
# Tests used:
# MAFA or UCN3 = assay: Small molecule screen at Stage 7: induction of MAFA or UCN3 expression; type: cell-based, human; details: Stage 7 at 20 mM D-glucose plus BME Vitamin supplement; 79 small molecules of Table XI
# Description: (§1) The following example is directed to identification of small molecules that can enhance the maturation status of a pancreatic beta cell, via increasing the gene expression of mature beta cell markers including MAFA (v-maf avian musculoaponeurotic fibrosarcoma oncogene homolog A) or UCN3 (urocortin 3). […] Y-compound was added to only during the first 24 hours post-seeding.
# (§2) For FIGS. 1A to 1H the cultures were differentiated using the following protocol.
# In general, the embodiments herein differentiate human pluripotent cells substantially as described above in Stages 1-7. For Stage 7, various small molecules were added and their effect was evaluated by quantitative real-time PCR. […] These small molecules were evaluated and 2 μM of each was added at Stage7.
# (§3) Primer details are outlined in Table III.
# UCN3 = assay: Small molecule screen: qRT-PCR of UCN3 expression at Stage 7 in H1-hESC-derived ALI clusters; type: cell-based, human; details: S7D7 ALI clusters; for expression of UCN3 as compared to S6D7, or untreated or DMSO treated cultures at Stage 7: 2 μM small molecule added at Stage 7, quantitative real-time PCR, FIGS. 1E-1H; for UCN3 up-regulation during Stage 7: Stage 7 no ALK5, low T3, ZM, H, NAC, FI, BLAR001, 5 μM AZT, 1 μM or 10 μM DEZA, FIG. 2B
# Description: as §1, §2
# (§4) In general, the embodiments herein differentiate human pluripotent cells substantially as described above in Stages 1-7. For Stage 7, various small molecules were added and their effect was evaluated by quantitative real-time PCR. These small molecules were evaluated and 2 μM of each was added at Stage7.
# as §3
# MAFA [1] = assay: Small molecule screen: qRT-PCR of MAFA expression at Stage 7 in H1-hESC-derived ALI clusters; type: cell-based, human; details: 2 μM small molecule added at Stage 7; S7D7 ALI clusters; quantitative real-time PCR; FIGS. 1A-1D
# Description: as §1, §2, §4, §3
# MAFA [2] = assay: as above; type: cell-based, human; details: Stage 7 no ALK5, low T3, ZM, H, NAC, FI, BLAR001; 5 μM AZT; 1 μM or 10 μM DEZA; S7D7 ALI clusters; FIG. 2A
# INHBB = details: S7D7 ALI clusters; 10 μM ALK5 inhibitor II in Stage 7; FIG. 3A
# Description: Cells of the human embryonic stem cell line H1 (“H1-hESC”) (with EZ8 media at passage 28 were seeded as single cells at 0.094×10^6 cells/cm^2 on […] ™ at a 1:30 dilution coated dishes in a media of Dulbecco's Modified Eagle's Medium Nutrient mixture F-12 (“DMEM-F12”), GlutaMAX™ in a 1:100 dilution (“1× concentration”), 0.25 mM ascorbic acid, 100 ng/ml fibroblast growth factor 2 (“FGF2”), 1 ng/ml of transforming growth factor beta (“TGFβ”), insulin-transferrin-selenium-ethanolamine (“ITS-X”) at a 1:100 dilution, 2% fatty-acid free bovine serum albumin (“FAF-BSA”), and 20 ng/ml of insulin-like growth factor-1 (“IGF-1”), supplemented with 10 μM of Rock Inhibitor Y-27632 (“Y-compound”). Forty-eight hours post-seeding, the cultures were washed in incomplete PBS (phosphate buffered saline without magnesium or calcium).
# During Stages 1 through 4 of the protocol, cultures were maintained on planar adherent cultures. • a. […]
# human islets = assay: Glucose-stimulated insulin secretion (perifusion, C-PEPTIDE ELISA); type: cell-based; details: 16.7 mM D-glucose ± 100 ng/ml Exendin-4, FIG. 8D
# Description: For quantification of glucose-dependent insulin secretion, Stage 7 ALI clusters, Aggrewell™ clusters and matured human islets were characterized by a cell perifusion system (BioRep Technologies, Miami, Fla., Catalog No. PERI4-02). Briefly, to normalize insulin secretion to a baseline, ALI/Aggrewell™ clusters or human islets were transferred into warm (37° C.) Kreb's Buffer (Table IX). Cells were loaded into perifusion chambers (BioRep Technologies, Catalog No. PERI-CHAMBER), and were continuously perfused (flow rate of 100 μl/min) with […] sequential Kreb's buffers supplemented with either: (i) 3 mM D-glucose; (ii) 16.7 mM D-glucose±100 ng/ml Exendin-4 (“Ex4”); and (iii) 25 mM KCl with 3 mM D-glucose. Specific perifusion protocols are indicated in each figure. Perfusate samples were collected every minute, and C-PEPTIDE protein levels (units in ng/ml) detected by a C-PEPTIDE ELISA (Mercodia, Uppsala, Sweden, Catalog No. 10-1136-01).
Compound,expression of the MAFA or UCN3 (MAFA or UCN3),"expression of MAFA as compared to S6D7, or untreated or DMSO treated cultures at Stage 7 (MAFA [1])",other results
O=c1ncccn1[C@@H]1O[C@H](CO)[C@@H](O)[C@H]1O [Zebularine],induced expression,–,–
O=C1c2c(O)ccc(O)c2C(=O)c2c(NCCNCCO)ccc(NCCNCCO)c21 [Mitoxantrone dihydrochloride],induced expression,–,–
CC(=O)Nc1ccc(C(=O)Nc2ccccc2N)cc1 [CI994],–,–,"expression of UCN3 as compared to S6D7, or untreated or DMSO treated cultures at Stage 7 (UCN3): significantly upregulated; also recorded: increased"
COc1cc2c(NC3CCN(C(C)C)CC3)nc(N3CCC(F)(F)CC3)nc2cc1OCCCN1CCCC1 [UNC0642],–,significantly upregulated,–
COc1cc2c(cc1OCCCN1CCCC1)N=C(N)C21CCC1 [A366],–,significantly upregulated,–
CC1=NN(c2ccc(C(=O)O)cc2)C(=O)C1=Cc1ccc(-c2cc(C)c(C)cc2[N+](=O)[O-])o1 [C646],induced expression,–,–
Cc1cc(/N=N/c2ccc(S(=O)(=O)Nc3ccccn3)cc2)c(N)cc1O [MS436],–,significantly upregulated,–
COc1ccc(S(=O)(=O)ON=C2C=C(C)C(=O)C(C)=C2)cc1 [L002],induced expression,–,–
COc1cc2c(Nc3ccc(NC(=O)c4ccccc4)cc3)ncnc2cc1OCCCN1CCOCC1 [ZM447439],–,significantly upregulated,–
O=C(CCCCCCC(=O)Nc1cccnc1)NO [Pyroxamide],–,–,"expression of UCN3 as compared to S6D7, or untreated or DMSO treated cultures at Stage 7 (UCN3): significantly upregulated; also recorded: increased"
O=c1cc(N2CCNCC2)oc2c(-c3ccccc3)cccc12 [LY303511],–,significantly upregulated,–
Nc1nccc2c1ncn2[C@@H]1C=C(CO)[C@@H](O)[C@H]1O [3-Deazaneplanocin A],–,–,UCN3 up-regulation during Stage 7 (UCN3): but not UCN3; MAFA up-regulation during Stage 7 (MAFA [2]): effective up-regulator of MAFA
O=C(O[C@@H]1Cc2c(O)cc(O)cc2O[C@@H]1c1cc(O)c(O)c(O)c1)c1cc(O)c(O)c(O)c1 [EGCG],induced expression,–,–
CC(=O)NCC(=O)N1[C@@H]2CC[C@H]1c1ccc(Nc3ncc(C(F)(F)F)c(NC4CCC4)n3)cc12 [PF03814735],–,significantly upregulated,–
O=c1c(O)c(-c2ccc(O)c(O)c2)oc2cc(O)ccc12 [Fisetin],induced expression,–,–
CC(C)N(CCCNC(=O)Nc1ccc(C(C)(C)C)cc1)C[C@H]1O[C@@H](n2cc(Br)c3c(N)ncnc32)[C@H](O)[C@@H]1O [SGC0946],induced expression,–,–
Cn1nnc2c(C(N)=O)ncn2c1=O [Temozolomide],induced expression,–,–
Cc1cc(Nc2ccc(NC(=O)c3ccc(Nc4ccnc5ccccc45)cc3)cc2)nc(N)n1 [SGI 1027],induced expression,–,–
COc1ccccc1S(=O)(=O)Nc1ccc2c(c1)CN(C)C(=O)N2 [PFI1],–,significantly upregulated,–
CCn1c(-c2nonc2N)nc2cncc(CNC3CCNCC3)c21 [SB747651A dihydrochloride],–,significantly upregulated,–
"Cc1cccc(-c2n[nH]cc2-c2ccc3ncccc3n2)n1 [ALK5 inhibitor II, 2-(3-(6-Methylpyridin-2-yl)-1H-pyrazol-4-yl)-1,5-naphthyridine]",–,–,INHBB expression relative to human islets (INHBB): enriched above the expression seen in human islets
"Exendin-4: insulin secretagogue, 100 ng/ml in perifusion buffer (Sigma-Aldrich E7144)",–,–,amplitude of the GSIS response (human islets): did not increase the amplitude of the GSIS response
COc1cc2c(NC3CCN(C(C)C)CC3)nc(C3CCCCC3)nc2cc1OCCCN1CCCC1 [UNC0638],–,significantly upregulated,–
Cn1c(/C=C/C(=O)NO)ccc1/C=C/C(=O)c1cccc(F)c1 [MC1568],–,significantly upregulated,–
Nc1ncn([C@@H]2O[C@H](CO)[C@@H](O)[C@H]2O)c(=O)n1 [5-Azacytidine],induced expression,–,"expression of UCN3 as compared to S6D7, or untreated or DMSO treated cultures at Stage 7 (UCN3): significantly upregulated; also recorded: increased; UCN3 up-regulation during Stage 7 (UCN3): up-regulator"
COc1cc2c(NC3CCN(C4CCCCC4)CC3)nc(N3CCCN(C(C)C)CC3)nc2cc1OCCCN1CCCCC1 [UNC0646],–,significantly upregulated,–
O=C(CCl)Nc1ccc(S(=O)(=O)c2ccc(NC(=O)CCl)cc2)cc1 [TC-E5003],–,significantly upregulated,–
Nc1nc(OCc2cc(Br)cs2)c2[nH]cnc2n1 [Lomeguatrib],induced expression,–,–
